Activity calls are given as the source filed them. No rule for the calls is given here.
Tested on: CCRIS mutagenicity, Ames/micronucleus/aberration tests
Assay: CCRIS mutagenicity studies
[1] = Test System: AMES SALMONELLA TYPHIMURIUM, Strain/Indicator: TA98, Metabolic Activation: HAMSTER, LIVER, S-9, AROCLOR 1254, Method: STANDARD PLATE
[2] = Test System: AMES SALMONELLA TYPHIMURIUM, Strain/Indicator: TA98, Metabolic Activation: NONE, Method: STANDARD PLATE
[3] = Test System: AMES SALMONELLA TYPHIMURIUM, Strain/Indicator: TA98, Metabolic Activation: RAT, LIVER, S-9, AROCLOR 1254, Method: STANDARD PLATE
[4] = Test System: AMES SALMONELLA TYPHIMURIUM, Strain/Indicator: TA100, Metabolic Activation: HAMSTER, LIVER, S-9, AROCLOR 1254, Method: STANDARD PLATE
[5] = Test System: AMES SALMONELLA TYPHIMURIUM, Strain/Indicator: TA100, Metabolic Activation: NONE, Method: STANDARD PLATE
[6] = Test System: AMES SALMONELLA TYPHIMURIUM, Strain/Indicator: TA100, Metabolic Activation: RAT, LIVER, S-9, AROCLOR 1254, Method: STANDARD PLATE
[7] = Test System: AMES SALMONELLA TYPHIMURIUM, Strain/Indicator: TA1535, Metabolic Activation: NONE, Method: STANDARD PLATE
[8] = Test System: AMES SALMONELLA TYPHIMURIUM, Strain/Indicator: TA1535, Metabolic Activation: RAT, LIVER, S-9, AROCLOR 1254, Method: STANDARD PLATE
[9] = Test System: AMES SALMONELLA TYPHIMURIUM, Strain/Indicator: TA1537, Metabolic Activation: NONE, Method: STANDARD PLATE
[10] = Test System: AMES SALMONELLA TYPHIMURIUM, Strain/Indicator: TA1537, Metabolic Activation: RAT, LIVER, S-9, AROCLOR 1254, Method: STANDARD PLATE

| SMILES | mutagenic call [1] | mutagenic call [2] | mutagenic call [3] | mutagenic call [4] | mutagenic call [5] | mutagenic call [6] | mutagenic call [7] | mutagenic call [8] | mutagenic call [9] | mutagenic call [10] | also measured |
| --- | --- | --- | --- | --- | --- | --- | --- | --- | --- | --- | --- |
| CC(=O)c1ccc(Cl)c(Cl)c1Cl | active; positive | inactive; negative | inactive; negative | active; positive | inactive; negative | active; positive |  |  |  |  | mutagenic call (Test System: MOUSE LYMPHOMA, Strain/Indicator: L5178Y (TK+/TK-), Metabolic Activation: NONE, Method: SUSPENSION/PLATE): inactive; negative. reevaluation of results: inconclusive; mutagenic call (Test System: MOUSE LYMPHOMA, Strain/Indicator: L5178Y (TK+/TK-), Metabolic Activation: RAT, LIVER, S-9, AROCLOR 1254, Method: SUSPENSION/PLATE): inactive; negative. reevaluation of results: negative |
| Cc1cnc2c(C)c(C)c3c(nc(N)n3C)c2n1 |  |  | active; positive |  |  |  |  |  |  |  |  |
| Nn1c2ccccc2c2cnccc21 |  |  |  |  |  |  |  |  |  |  | mutagenic call (Test System: AMES SALMONELLA TYPHIMURIUM, Strain/Indicator: TA1537, Metabolic Activation: NONE, Method: PREINCUBATION): active; positive; mutagenic call (Test System: AMES SALMONELLA TYPHIMURIUM, Strain/Indicator: TA1537, Metabolic Activation: RAT, LIVER, S-9, PHENOBARBITAL, Method: PREINCUBATION): inactive; negative |
| CC(/C=C(/C#N)c1ccc(Cl)c(Cl)c1)C(c1ccccc1)C(C#N)c1ccc(Cl)c(Cl)c1 (centres undefined) |  |  |  |  | active; positive |  |  |  |  |  |  |
| O=c1oc2cc(O)ccc2c2oc3cc(O)ccc3c12 | inactive; negative | inactive; negative | inactive; negative | inactive; negative | inactive; negative | inactive; negative | inactive; negative | inactive; negative | inactive; negative | inactive; negative | mutagenic call (End Point: IN VITRO CHROMOSOMAL ABERRATIONS, Test System: HUMAN PERIPHERAL LYMPHOCYTES, Metabolic Activation: NONE): active; positive (structural changes); mutagenic call (Test System: AMES SALMONELLA TYPHIMURIUM, Strain/Indicator: TA1535, Metabolic Activation: HAMSTER, LIVER, S-9, AROCLOR 1254, Method: STANDARD PLATE): inactive; negative; mutagenic call (Test System: AMES SALMONELLA TYPHIMURIUM, Strain/Indicator: TA1537, Metabolic Activation: HAMSTER, LIVER, S-9, AROCLOR 1254, Method: STANDARD PLATE): inactive; negative; mutagenic call (Test System: AMES SALMONELLA TYPHIMURIUM, Strain/Indicator: TA1538, Metabolic Activation: HAMSTER, LIVER, S-9, AROCLOR 1254, Method: STANDARD PLATE): inactive; negative; mutagenic call (Test System: AMES SALMONELLA TYPHIMURIUM, Strain/Indicator: TA1538, Metabolic Activation: NONE, Method: STANDARD PLATE): inactive; negative; mutagenic call (Test System: AMES SALMONELLA TYPHIMURIUM, Strain/Indicator: TA1538, Metabolic Activation: RAT, LIVER, S-9, AROCLOR 1254, Method: STANDARD PLATE): inactive; negative; mutagenic call (Test System: Ames Salmonella typhimurium, Strain/Indicator: TA102, Metabolic Activation: None, Method: Preincubation): inactive; negative; mutagenic call (Test System: Ames Salmonella typhimurium, Strain/Indicator: TA102, Metabolic Activation: Rat, Liver, S-9, Aroclor 1254 in 0.154 M KCl, Method: Preincubation): inactive; negative; mutagenic call (Test System: CHINESE HAMSTER LUNG CELLS, Strain/Indicator: V-79 (HPRT)/6-THIOGUANINE, Metabolic Activation: NONE): active; positive; mutagenic call (Test System: HUMAN LYMPHOBLASTOID CELLS, Strain/Indicator: AHH-1 CELLS(TK+/TK-), Metabolic Activation: NONE, Method: SUSPENSION/PLATE): active; positive; mutagenic call (Test System: SYRIAN HAMSTER EMBRYO CELLS, Strain/Indicator: HPRT/6-THIOGUANINE, Metabolic Activation: NONE, Method: PLATE): active; positive |
| CCN(CC)c1ccc(N=Nc2ccc([N+](=O)[O-])cc2C#N)cc1 |  | active; positive | active; positive |  | active; positive | active; positive | inactive; negative | inactive; negative | active; positive | active; positive | mutagenic call (Test System: CHINESE HAMSTER OVARY, Strain/Indicator: CHO (HGPRT)/6-THIOGUANINE, Metabolic Activation: NONE): inactive; negative; mutagenic call (Test System: CHINESE HAMSTER OVARY, Strain/Indicator: CHO (HGPRT)/6-THIOGUANINE, Metabolic Activation: RAT, LIVER, S-9, AROCLOR 1254): inactive; negative; mutagenic call (Test System: UDS RAT HEPATOCYTES, Strain/Indicator: THY INCORP, Metabolic Activation: NONE, Method: AUTORADIOGRAPHY): inactive; negative |
